Assay results published in ChEMBL document CHEMBL1156180, “Synthesis and bioluminescence-inducing properties of autoinducer (S)-4,5-dihydroxypentane-2,3-dione and its enantiomer” (Bioorg Med Chem Lett, 2010).
Active and inactive are the calls of the source. No cut-off for these calls is given here.

Molecular target: Autoinducer 2-binding periplasmic protein LuxP (Vibrio harveyi) (UniProt P54300)
Experiment: Induction of Vibrio harveyi BB170 LuxP sensor protein-mediated quorum sensing activity at 0.5 to 5 ug/ml by reporter bioluminescence assay

Chain of Autoinducer 2-binding periplasmic protein LuxP (Vibrio harveyi) (P54300 whole entry): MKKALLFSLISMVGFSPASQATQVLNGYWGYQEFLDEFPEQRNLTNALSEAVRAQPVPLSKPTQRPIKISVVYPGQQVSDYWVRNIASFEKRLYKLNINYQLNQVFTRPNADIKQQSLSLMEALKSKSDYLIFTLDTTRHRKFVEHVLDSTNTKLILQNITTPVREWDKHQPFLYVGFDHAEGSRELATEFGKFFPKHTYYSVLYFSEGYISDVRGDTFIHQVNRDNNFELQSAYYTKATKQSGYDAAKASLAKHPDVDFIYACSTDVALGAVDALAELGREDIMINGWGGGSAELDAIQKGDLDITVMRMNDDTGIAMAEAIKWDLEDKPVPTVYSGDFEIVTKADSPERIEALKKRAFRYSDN

| Activity | Compound |
| --- | --- |
| Active | CC(=O)C(=O)[C@H](O)CO |
| Active | CC(=O)C(=O)[C@@H](O)CO |
